# Measured values: PMC3145970, “Specific CLK Inhibitors from a Novel Chemotype for Regulation of Alternative Splicing” (Chemistry & Biology, 2011)
# Like-named read-outs stand apart in the source and are kept apart here.
# Tests used:
# Experiment in all cases: Thermal stability shift assay
# Type in all cases: binding
# CK1g3 = CK1g3 (Homo sapiens, UniProt Q9Y6M4); conditions: read-out: Tm shift CK1g3
# Description: (§1) Thermal denaturation experiments were carried out in an Mx3005p real-time PCR machine (Agilent) using a protein concentration of 2 μM and an inhibitor concentration of 10 μM. Samples were buffered in 10 mM HEPES (pH 7.5), 500 mM NaCl and a 1:1000 dilution of SyproOrange (Invitrogen).
# CLK1 = biological target: T1, CLK1 (Homo sapiens, UniProt P49759); conditions: inhibitor 10 μM; read-out: Tm shift CLK1
# T1 construct: the kinase domains of human CLK1 (residues: 148–484 (C terminus)); hexahistidine tag (TEV-cleavable) (cleaved yes); made in house; host or cells: E. coli BL21(DE3)
# T1 sequence (P49759 148-484): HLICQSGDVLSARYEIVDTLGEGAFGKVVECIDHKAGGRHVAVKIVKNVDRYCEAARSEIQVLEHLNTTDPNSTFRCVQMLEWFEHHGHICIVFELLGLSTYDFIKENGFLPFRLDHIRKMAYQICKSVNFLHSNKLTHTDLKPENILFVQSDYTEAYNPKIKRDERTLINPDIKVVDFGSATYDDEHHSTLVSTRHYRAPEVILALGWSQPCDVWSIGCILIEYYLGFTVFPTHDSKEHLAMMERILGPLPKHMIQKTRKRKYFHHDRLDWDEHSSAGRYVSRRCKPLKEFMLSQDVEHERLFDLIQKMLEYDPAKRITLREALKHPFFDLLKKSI
# Description: as §1
# CLK2 = CLK2 (Homo sapiens, UniProt P49760); conditions: inhibitor 10 μM; read-out: Tm shift CLK2
# CLK2, sequence (P49760 whole entry): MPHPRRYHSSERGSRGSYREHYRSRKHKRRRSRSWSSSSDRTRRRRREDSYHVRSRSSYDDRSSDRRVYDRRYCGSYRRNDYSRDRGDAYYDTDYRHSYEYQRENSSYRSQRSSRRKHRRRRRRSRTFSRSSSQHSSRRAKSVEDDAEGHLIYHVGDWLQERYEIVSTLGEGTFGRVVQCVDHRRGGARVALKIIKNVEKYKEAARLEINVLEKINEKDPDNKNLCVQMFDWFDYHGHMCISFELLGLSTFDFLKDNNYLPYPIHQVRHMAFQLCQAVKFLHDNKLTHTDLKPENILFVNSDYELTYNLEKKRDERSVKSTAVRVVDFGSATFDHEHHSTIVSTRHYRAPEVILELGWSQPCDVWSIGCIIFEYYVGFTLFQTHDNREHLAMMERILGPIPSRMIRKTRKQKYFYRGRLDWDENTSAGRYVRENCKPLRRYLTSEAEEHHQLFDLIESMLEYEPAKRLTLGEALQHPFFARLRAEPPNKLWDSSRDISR
# Description: as §1
# DYRK2 = biological target: T2, DYRK2 (Homo sapiens, UniProt Q92630); conditions: inhibitor 10 μM; read-out: Tm shift DYRK2
# T2 construct: purchased in-house (SGC Oxford thermal shift panel)
# T2 sequence (Q92630 1-601): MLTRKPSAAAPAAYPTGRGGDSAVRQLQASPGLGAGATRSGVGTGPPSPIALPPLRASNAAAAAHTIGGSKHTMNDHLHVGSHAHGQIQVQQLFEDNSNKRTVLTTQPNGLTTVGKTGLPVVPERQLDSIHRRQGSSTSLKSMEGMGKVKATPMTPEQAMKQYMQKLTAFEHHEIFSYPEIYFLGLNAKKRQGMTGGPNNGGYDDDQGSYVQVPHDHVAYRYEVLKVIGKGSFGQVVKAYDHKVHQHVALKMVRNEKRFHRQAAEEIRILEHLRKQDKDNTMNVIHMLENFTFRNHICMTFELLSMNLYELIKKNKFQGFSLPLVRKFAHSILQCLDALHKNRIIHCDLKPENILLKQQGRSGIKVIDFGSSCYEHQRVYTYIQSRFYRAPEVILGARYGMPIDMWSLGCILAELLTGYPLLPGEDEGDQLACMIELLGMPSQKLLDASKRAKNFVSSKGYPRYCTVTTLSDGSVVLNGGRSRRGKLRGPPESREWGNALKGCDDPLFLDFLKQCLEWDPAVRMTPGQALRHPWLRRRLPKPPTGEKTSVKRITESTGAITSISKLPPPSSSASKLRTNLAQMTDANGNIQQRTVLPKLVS
# Description: as §1
# CLK4 = biological target: T3, CLK4 (Homo sapiens, UniProt Q9HAZ1); conditions: inhibitor 10 μM; read-out: Tm shift CLK4
# T3 construct: purchased in-house (SGC Oxford thermal shift panel)
# T3 sequence (Q9HAZ1 whole entry): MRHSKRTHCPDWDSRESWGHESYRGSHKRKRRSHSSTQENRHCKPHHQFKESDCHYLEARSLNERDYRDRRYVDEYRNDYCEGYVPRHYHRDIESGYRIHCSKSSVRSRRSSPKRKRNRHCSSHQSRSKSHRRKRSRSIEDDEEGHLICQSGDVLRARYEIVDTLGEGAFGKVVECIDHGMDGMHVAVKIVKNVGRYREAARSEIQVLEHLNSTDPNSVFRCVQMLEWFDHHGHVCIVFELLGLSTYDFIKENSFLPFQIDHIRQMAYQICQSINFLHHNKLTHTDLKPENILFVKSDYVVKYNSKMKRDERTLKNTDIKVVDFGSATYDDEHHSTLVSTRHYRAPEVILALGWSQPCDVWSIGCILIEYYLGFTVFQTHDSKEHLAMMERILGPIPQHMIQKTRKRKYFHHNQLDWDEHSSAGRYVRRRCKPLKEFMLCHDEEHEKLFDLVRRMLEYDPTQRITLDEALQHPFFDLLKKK
# Description: as §1
# CLK3 = biological target: T4, CLK3 (Homo sapiens, UniProt P49761); conditions: inhibitor 10 μM; read-out: Tm shift CLK3
# T4 construct: purchased in-house (SGC Oxford thermal shift panel)
# T4 sequence (P49761 whole entry): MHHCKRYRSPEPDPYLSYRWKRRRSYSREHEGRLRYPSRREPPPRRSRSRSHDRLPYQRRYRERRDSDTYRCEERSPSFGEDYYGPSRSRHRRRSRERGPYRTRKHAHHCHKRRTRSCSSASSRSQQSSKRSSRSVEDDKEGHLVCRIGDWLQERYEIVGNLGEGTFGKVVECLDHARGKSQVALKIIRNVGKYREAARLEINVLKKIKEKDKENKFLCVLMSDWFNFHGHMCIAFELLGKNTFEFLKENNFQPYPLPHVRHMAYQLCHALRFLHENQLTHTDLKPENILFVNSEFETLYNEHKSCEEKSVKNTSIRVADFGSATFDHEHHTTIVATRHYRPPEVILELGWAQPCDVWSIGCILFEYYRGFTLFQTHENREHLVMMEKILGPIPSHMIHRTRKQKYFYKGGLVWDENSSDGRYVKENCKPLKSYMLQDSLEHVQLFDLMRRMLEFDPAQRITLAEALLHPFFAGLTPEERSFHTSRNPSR
# Description: as §1
# DYRK1A = biological target: T5, DYRK1A (Homo sapiens, UniProt Q13627); conditions: inhibitor 10 μM; read-out: Tm shift DYRK1A
# T5 construct: purchased in-house (SGC Oxford thermal shift panel)
# Description: as §1
# CDK2 = CDK2 (Homo sapiens, UniProt P24941); conditions: read-out: Tm shift CDK2
# Description: as §1
# CK1e = CK1e (Homo sapiens, UniProt P49674); conditions: inhibitor 10 μM; read-out: Tm shift CK1e
# CK1e, sequence (P49674 whole entry): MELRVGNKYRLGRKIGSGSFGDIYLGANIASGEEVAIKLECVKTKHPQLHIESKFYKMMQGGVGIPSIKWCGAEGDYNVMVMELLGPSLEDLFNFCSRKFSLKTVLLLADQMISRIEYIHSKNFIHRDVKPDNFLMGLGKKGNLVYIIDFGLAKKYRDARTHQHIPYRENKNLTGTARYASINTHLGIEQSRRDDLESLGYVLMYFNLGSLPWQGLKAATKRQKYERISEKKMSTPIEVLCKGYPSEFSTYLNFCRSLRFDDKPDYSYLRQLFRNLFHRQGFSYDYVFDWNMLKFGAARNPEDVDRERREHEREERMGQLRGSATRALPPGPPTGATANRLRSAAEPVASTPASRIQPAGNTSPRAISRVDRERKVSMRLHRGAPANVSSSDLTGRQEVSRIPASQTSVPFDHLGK
# Description: as §1
# PIM1 = PIM1 (Homo sapiens, UniProt P11309); conditions: read-out: Tm shift PIM1
# PIM1, sequence (P11309 whole entry): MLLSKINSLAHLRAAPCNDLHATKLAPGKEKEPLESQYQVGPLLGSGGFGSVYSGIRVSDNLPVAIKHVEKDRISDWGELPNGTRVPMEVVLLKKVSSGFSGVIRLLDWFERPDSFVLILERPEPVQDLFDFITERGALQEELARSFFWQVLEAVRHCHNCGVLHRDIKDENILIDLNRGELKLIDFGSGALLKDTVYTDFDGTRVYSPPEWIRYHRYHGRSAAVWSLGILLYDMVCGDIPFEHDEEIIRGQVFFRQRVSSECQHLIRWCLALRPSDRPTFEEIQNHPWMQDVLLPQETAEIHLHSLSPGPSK
# Description: as §1
# CaMKK1 = CaMKK1 (Homo sapiens, UniProt Q8N5S9); conditions: read-out: Tm shift CaMKK1
# CaMKK1, sequence (Q8N5S9 whole entry): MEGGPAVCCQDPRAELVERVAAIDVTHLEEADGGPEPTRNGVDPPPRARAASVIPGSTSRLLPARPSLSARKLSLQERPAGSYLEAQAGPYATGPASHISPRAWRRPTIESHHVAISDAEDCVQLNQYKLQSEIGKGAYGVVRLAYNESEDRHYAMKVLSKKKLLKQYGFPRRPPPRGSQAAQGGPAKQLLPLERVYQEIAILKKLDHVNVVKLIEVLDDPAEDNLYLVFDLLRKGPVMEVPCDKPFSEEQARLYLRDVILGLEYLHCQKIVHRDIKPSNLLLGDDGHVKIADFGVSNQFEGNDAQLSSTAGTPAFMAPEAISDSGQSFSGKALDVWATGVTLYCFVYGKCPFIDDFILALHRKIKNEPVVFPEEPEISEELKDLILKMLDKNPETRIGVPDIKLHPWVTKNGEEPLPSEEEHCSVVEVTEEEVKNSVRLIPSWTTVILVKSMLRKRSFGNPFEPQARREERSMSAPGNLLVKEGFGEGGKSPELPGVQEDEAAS
# Description: as §1, with “(Invitrogen). The assay and data evaluation were carried out as described ([Bullock et al., 2005])” for “(Invitrogen).”
# RSK3~C = biological target: T6, RSK3~C (Homo sapiens, UniProt Q15349); conditions: read-out: Tm shift RSK3~C
# T6 construct: RSK3~C 4.5 8.9 0.7 0.4 0.5 0.1 0.4
# T6 sequence (Q15349 415-672 limits assumed): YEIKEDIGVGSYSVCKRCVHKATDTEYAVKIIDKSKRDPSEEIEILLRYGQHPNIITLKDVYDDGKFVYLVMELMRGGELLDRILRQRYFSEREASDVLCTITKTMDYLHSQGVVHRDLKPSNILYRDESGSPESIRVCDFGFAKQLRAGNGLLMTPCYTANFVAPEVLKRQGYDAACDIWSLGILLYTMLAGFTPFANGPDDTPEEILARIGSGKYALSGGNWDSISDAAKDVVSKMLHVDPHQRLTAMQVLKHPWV
# Description: as §1, with “(Invitrogen). The assay and data evaluation were carried out as described ([Bullock et al., 2005])” for “(Invitrogen).”
# ACTR2 = ACTR2 (Homo sapiens, UniProt P27037); conditions: read-out: Tm shift ACTR2
# ACTR2, sequence (P27037 20-513): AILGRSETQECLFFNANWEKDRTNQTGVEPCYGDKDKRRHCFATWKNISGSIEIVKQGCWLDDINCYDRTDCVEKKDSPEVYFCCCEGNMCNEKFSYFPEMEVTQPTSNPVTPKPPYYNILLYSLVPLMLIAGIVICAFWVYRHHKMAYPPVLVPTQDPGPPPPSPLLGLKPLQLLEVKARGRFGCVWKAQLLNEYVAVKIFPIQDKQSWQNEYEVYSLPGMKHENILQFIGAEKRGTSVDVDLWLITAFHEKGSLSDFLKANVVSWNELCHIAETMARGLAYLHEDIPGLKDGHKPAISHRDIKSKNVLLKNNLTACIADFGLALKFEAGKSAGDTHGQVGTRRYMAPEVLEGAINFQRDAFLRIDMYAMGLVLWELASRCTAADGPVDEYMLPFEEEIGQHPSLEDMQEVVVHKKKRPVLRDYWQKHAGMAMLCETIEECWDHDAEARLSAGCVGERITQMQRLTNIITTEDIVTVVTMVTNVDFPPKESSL
# Description: as §1, with “(Invitrogen). The assay and data evaluation were carried out as described ([Bullock et al., 2005])” for “(Invitrogen).”
# RSK1-C = biological target: T7, RSK1-C (Homo sapiens, UniProt Q15418); conditions: read-out: Tm shift RSK1-C
# T7 construct: RSK1-C 0.7 4.0 1.6 1.9 1.9 0.3 0.9
# T7 sequence (Q15418 418-675 limits assumed): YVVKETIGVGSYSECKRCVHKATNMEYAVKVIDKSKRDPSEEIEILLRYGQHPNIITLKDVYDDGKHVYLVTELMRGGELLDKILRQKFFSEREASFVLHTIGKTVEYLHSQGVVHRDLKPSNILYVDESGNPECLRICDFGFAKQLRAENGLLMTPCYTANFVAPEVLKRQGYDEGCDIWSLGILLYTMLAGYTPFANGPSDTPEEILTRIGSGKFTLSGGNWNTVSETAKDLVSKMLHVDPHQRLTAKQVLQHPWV
# Description: as §1, with “(Invitrogen). The assay and data evaluation were carried out as described ([Bullock et al., 2005])” for “(Invitrogen).”
# SRPK2 = SRPK2 (Homo sapiens, UniProt P78362); conditions: read-out: Tm shift SRPK2
# Description: as §1, with “(Invitrogen). The assay and data evaluation were carried out as described ([Bullock et al., 2005])” for “(Invitrogen).”
# PKCz = biological target: T8, PKCz (Homo sapiens, UniProt Q05513); conditions: read-out: Tm shift PKCz
# T8 sequence (Q05513 1-592): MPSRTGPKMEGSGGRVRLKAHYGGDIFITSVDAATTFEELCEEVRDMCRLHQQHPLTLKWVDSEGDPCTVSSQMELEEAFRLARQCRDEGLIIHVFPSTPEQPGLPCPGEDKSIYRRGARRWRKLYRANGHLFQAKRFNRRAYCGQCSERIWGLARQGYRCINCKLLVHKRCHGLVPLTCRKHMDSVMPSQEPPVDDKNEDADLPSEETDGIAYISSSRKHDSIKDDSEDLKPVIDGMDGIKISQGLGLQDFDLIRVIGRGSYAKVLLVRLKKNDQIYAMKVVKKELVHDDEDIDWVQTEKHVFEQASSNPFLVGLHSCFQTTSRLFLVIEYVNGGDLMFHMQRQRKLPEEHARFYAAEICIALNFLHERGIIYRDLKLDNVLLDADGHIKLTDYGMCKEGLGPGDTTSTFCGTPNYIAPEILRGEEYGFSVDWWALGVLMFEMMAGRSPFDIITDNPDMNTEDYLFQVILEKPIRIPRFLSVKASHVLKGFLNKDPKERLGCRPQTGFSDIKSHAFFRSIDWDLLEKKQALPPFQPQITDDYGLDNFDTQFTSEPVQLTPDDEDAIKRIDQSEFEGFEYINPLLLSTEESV
# Description: as §1, with “(Invitrogen). The assay and data evaluation were carried out as described ([Bullock et al., 2005])” for “(Invitrogen).”
# JAK1 = biological target: T9, JAK1 (Homo sapiens, UniProt P23458); conditions: read-out: Tm shift JAK1
# T9 construct: purchased in-house (SGC Oxford thermal shift panel)
# Description: as §1, with “(Invitrogen). The assay and data evaluation were carried out as described ([Bullock et al., 2005])” for “(Invitrogen).”
# Erk1 = biological target: T10, Erk1 (Homo sapiens, UniProt P27361); conditions: read-out: Tm shift Erk1
# T10 construct: purchased in-house (SGC Oxford thermal shift panel)
# T10 sequence (P27361 whole entry): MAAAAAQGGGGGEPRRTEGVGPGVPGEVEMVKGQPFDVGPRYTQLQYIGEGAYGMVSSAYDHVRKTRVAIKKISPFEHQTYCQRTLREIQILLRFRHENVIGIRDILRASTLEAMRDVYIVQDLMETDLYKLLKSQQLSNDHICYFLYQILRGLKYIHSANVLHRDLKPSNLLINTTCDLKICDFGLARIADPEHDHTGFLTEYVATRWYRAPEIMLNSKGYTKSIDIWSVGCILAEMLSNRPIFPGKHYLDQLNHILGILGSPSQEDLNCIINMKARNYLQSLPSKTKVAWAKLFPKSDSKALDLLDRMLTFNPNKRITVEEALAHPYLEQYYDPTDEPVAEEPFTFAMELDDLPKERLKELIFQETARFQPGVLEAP
# Description: as §1
# CK1g3, sequence (Q9Y6M4 whole entry): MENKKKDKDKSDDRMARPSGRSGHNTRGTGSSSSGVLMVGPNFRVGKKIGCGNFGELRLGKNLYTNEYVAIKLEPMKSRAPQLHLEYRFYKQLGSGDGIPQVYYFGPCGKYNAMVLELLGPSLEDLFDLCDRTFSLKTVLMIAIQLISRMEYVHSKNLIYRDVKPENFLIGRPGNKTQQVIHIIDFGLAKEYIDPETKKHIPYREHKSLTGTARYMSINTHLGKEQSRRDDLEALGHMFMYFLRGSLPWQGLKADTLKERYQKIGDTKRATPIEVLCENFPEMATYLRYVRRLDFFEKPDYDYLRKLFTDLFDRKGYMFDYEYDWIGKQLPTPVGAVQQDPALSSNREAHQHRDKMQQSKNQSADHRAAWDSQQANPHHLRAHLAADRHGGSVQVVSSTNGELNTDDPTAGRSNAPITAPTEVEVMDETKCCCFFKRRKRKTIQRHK
ΔTm at 10 µM (CK1g3; inhibitor 10 μM) [°C],ΔTm at 10 µM (CLK1) [°C],ΔTm at 10 µM (CLK2) [°C],ΔTm at 10 µM (DYRK2) [°C],ΔTm at 10 µM (CLK4) [°C],ΔTm at 10 µM (CLK3) [°C],ΔTm at 10 µM (DYRK1A) [°C],ΔTm at 10 µM (CDK2; inhibitor 10 μM) [°C],ΔTm at 10 µM (CK1e) [°C],ΔTm at 10 µM (PIM1; inhibitor 10 μM) [°C],ΔTm at 10 µM (CaMKK1; inhibitor 10 μM) [°C],ΔTm at 10 µM (RSK3~C; inhibitor 10 μM) [°C],ΔTm at 10 µM (ACTR2; inhibitor 10 μM) [°C],ΔTm at 10 µM (RSK1-C; inhibitor 10 μM) [°C],ΔTm at 10 µM (SRPK2; inhibitor 10 μM) [°C],ΔTm at 10 µM (PKCz; inhibitor 10 μM) [°C],ΔTm at 10 µM (JAK1; inhibitor 10 μM) [°C],ΔTm at 10 µM (Erk1; inhibitor 10 μM) [°C],SMILES,ΔTm at 10 µM (CK1g3) [°C],ΔTm at 10 µM (Erk1) [°C],further results
0.5,5.6,3,0.7,4.1,1.7,0.6,-0.1,0.3,2.5,0.3,0.1,0.6,0.3,-0.1,0.4,0.2,0.1,"CCOC(=O)c1c(C(C#N)=CN(C)C)c2ccc(Cl)c(Cl)c2n1C (mixture of isomers) [compound 2, (E/Z)-Ethyl 6,7-Dichloro-3-[1-Cyano-2-(Dimethylamino)Vinyl]-1-Methyl-1H-Indole-2-Carboxylate]",,,
,,,,,,,,,,,,,,,,,,"CCOC(=O)c1c(/C(C#N)=C\N)c2ccc(Cl)c(Cl)c2n1C [KH-CB19, (E)-Ethyl 3-(2-Amino-1-Cyanovinyl)-6,7-Dichloro-1-Methyl-1H-Indole-2-Carboxylate]",0.1,-0.3,ΔTm at 10 µM (CDK2): 0.2 °C; ΔTm at 10 µM (PIM1): 2.9 °C; ΔTm at 10 µM (CaMKK1): -0.1 °C; ΔTm at 10 µM (RSK3~C): 0.7 °C; ΔTm at 10 µM (ACTR2): 0.2 °C; ΔTm at 10 µM (RSK1-C): 1.6 °C; ΔTm at 10 µM (SRPK2): 0.1 °C; ΔTm at 10 µM (PKCz): -0.2 °C; ΔTm at 10 µM (JAK1): 0.7 °C
,,,,,,,,,,,,,,,,,,"CCOC(=O)c1c(C(C#N)=CN)c2ccc(Cl)c(Cl)c2n1C (mixture of isomers) [KH-CB20, (E/Z)-Ethyl 3-(2-Amino-1-Cyanovinyl)-6,7-Dichloro-1-Methyl-1H-Indole-2-Carboxylate]",0.3,0.1,ΔTm at 10 µM (CDK2): 0.2 °C; ΔTm at 10 µM (PIM1): 3 °C; ΔTm at 10 µM (CaMKK1): 0.6 °C; ΔTm at 10 µM (RSK3~C): 0.4 °C; ΔTm at 10 µM (ACTR2): 0.4 °C; ΔTm at 10 µM (RSK1-C): 1.9 °C; ΔTm at 10 µM (SRPK2): 0.5 °C; ΔTm at 10 µM (PKCz): 0.1 °C; ΔTm at 10 µM (JAK1): 1 °C
0,10.9,6.3,2.1,9.6,7.9,5.1,0.4,0.9,3.4,0.4,0.5,0.8,1.9,0.2,0.5,0.9,-0.5,"Cn1c2c(Cl)c(Cl)ccc2c2c(C#N)c[nH]c(=O)c21 [compound 3, 7,8-Dichloro-9-Methyl-1-Oxo-2,9-Dihydro-1H-Pyrido[3,4-b]Indole-4-Carbonitrile]",,,

SMILES,ΔTm at 10 µM (CK1g3; inhibitor 10 μM) [°C],ΔTm at 10 µM (CLK1) [°C],ΔTm at 10 µM (CLK2) [°C],ΔTm at 10 µM (DYRK2) [°C],ΔTm at 10 µM (CLK4) [°C],ΔTm at 10 µM (CLK3) [°C],ΔTm at 10 µM (DYRK1A) [°C],ΔTm at 10 µM (CDK2; inhibitor 10 μM) [°C],ΔTm at 10 µM (CK1e) [°C],ΔTm at 10 µM (PIM1; inhibitor 10 μM) [°C],ΔTm at 10 µM (CaMKK1; inhibitor 10 μM) [°C],ΔTm at 10 µM (RSK3~C; inhibitor 10 μM) [°C],ΔTm at 10 µM (ACTR2; inhibitor 10 μM) [°C],ΔTm at 10 µM (RSK1-C; inhibitor 10 μM) [°C],ΔTm at 10 µM (SRPK2; inhibitor 10 μM) [°C],ΔTm at 10 µM (PKCz; inhibitor 10 μM) [°C],ΔTm at 10 µM (JAK1; inhibitor 10 μM) [°C],ΔTm at 10 µM (Erk1; inhibitor 10 μM) [°C],ΔTm at 10 µM (CK1g3) [°C],ΔTm at 10 µM (Erk1) [°C],further results
"NC1=NC(=O)/C(=C2\CCNC(=O)c3[nH]c(Br)cc32)N1 [Hymenialdisine, hymenialdisine, reference compound]",3.5,7.8,4.4,0.8,7,7.2,4.4,1.5,4.8,0.6,0.2,4.5,0.7,0.7,-0.2,-0.2,0.3,,,,
